Measurements taken from patent US20260308159A1, “BICYCLIC HETEROARYLAMIDES HAVING GPR68 MODULATING ACTIVITY” (RECURSION PHARMACEUTICALS, INC., priority 2023, published 2026).

Target: T1, human GPR68 (Homo sapiens, UniProt Q15743)
T1 construct: encoding full-length human GPR68 (uniprot ID: Q15743); expressed in transfected cells; host or cells: HEK293T
Test: GPR68 Biochemical Assay (Promega GloSensor cAMP assay, GPR68 antagonism)
Type: cell-based
Conditions: HEK293T cells transiently expressing hGPR68, antagonism of pH 5.5 stimulated cAMP, 15 min, read-out: hGPR68 IC50
Protocol: GPR68 antagonism was determined using the Promega GloSensor™ CAMP assay (F. I. Wang et al., Methods 2021, S1046-2023 (21) 00249-8). HEK293T cells (obtained from ECACC, Cat 12022001, Lot no. 17E044) were cultured in T175 flasks (Greiner, Cat 660175) in DMEM (Gibco, Cat 11995-065) supplemented with 10% Fetal Bovine Serum (Gibco Cat 16000-044), and 100 u/mL Pen-Strep (Gibco, Cat 15140) at 37° C. and 5% CO2. GPR68 expression was achieved by transient transfection with a mammalian expression plasmid encoding full-length human GPR68 (uniprot ID: Q15743) under control of a CMV promoter. The day before transfection, cell media was aspirated and HEK293T cells were incubated with accutase (Sigma, Cat A6964) for 3-4 minutes 37° C. and 5% CO2 before being manually detached with excess DMEM and trituration. Cell density was determined by automated cell counting (Countess, Invitrogen) and adjusted to 6×10^6 cells/20 mL and transferred to 15 cm dishes (Thermo Fisher, Cat 130183) for overnight incubation at 37° C. and 5% CO2. The next day separate mammalian expression plasmids encoding hGPR68 (4 μg) and Promega GloSensor (8 μg) were diluted to 1 mL in Opti-MEM (Thermo Fisher Scientific, Cat 31985070) and incubated with 30 μL of lipofectamine 3000 (also diluted to 1 mL in Opti-MEM) for 15 minutes at room temperature and subsequently added dropwise to the plated cells. Post transfection cells were then incubated at 37° C. and 5% CO2 for at least 16 hours before transfer to assay plates the following day. Transfer was conducted by washing cells with PBS and incubating with accutase for 3-4 minutes 37° C. and 5% CO2 before being manually detached with excess DMEM and mild trituration. The suspension was then centrifuged at 192 RCF for 4 minutes in a 50 mL centrifuge tube (Greiner, Cat 227261).
Supernatant was removed by aspiration and the cell pellet was resuspended in DMEM+1% dialysed FBS (Gibco, Cat 26400-044) and 100 u/mL Pen-Strep to a cell density of 500 cells/μL. Cells were plated into poly-L-Lysine coated 384-well white assay plates (Corning, Cat 3570) at a final volume of 40 µL and a density of 20,000 cells/well before overnight incubation at 37° C. and 5% CO2. The following day media was manually ejected from the 384-well assay plate and replaced with 10 μL GloSensor substrate (Promega, Cat E1291) prepared in pH 8.0 assay buffer (1×HBSS, 10 mM HEPES, 10 mM MOPS). Cells were incubated with this solution for 60 minutes at room temperature in the dark. Test compounds or an equivalent volume of DMSO (vehicle) were added to compounds plates to create a 9-point, half-log concentration series for each compound with a maximum final assay concentration of 50 μM and a consistent final DMSO concentration of 0.5%. Assay buffer with 0.1% BSA and 0.01% ascorbic acid was prepared at three pHs: pH 8.0, pH 5.5 and pH 4.5. pH 8.0 and 4.5 were added to the compound plate as maximum and minimum effect controls whilst pH 5.5 was added to all compound wells to stimulate GPR68 to a level corresponding to […] of maximal stimulation after addition to the cells already in pH 8.0 (assay acceptance criteria range 70-90%). DMSO/Compound and buffer was added to the plated cells containing the GloSensor substrate and incubated for 15 minutes at room temperature before being read on a microplate reader (BMG PHERAstar, optic module LUM Plus with Gain 3600). Data was exported and analysed in excel and Graphpad prism (version 9). Assay QC acceptance criteria required the maximum and minimum controls to return a Z′≥0.5, the EC80 to be 80%±10% of expected and the reference ligand pIC50 to be within one-half-log unit of its historical IC50. Percent inhibition was calculated using the mean EC80 (pH 5.5) and mean minimum effect control (pH 8.0). Data were plotted as percentage inhibition, average±SEM. IC50, Emax, Emin, Actual max, actual min, R^2 and fit confidence were calculated using Graphpad Prism's sigmoidal dose-response function.

T1 sequence (Q15743 whole entry): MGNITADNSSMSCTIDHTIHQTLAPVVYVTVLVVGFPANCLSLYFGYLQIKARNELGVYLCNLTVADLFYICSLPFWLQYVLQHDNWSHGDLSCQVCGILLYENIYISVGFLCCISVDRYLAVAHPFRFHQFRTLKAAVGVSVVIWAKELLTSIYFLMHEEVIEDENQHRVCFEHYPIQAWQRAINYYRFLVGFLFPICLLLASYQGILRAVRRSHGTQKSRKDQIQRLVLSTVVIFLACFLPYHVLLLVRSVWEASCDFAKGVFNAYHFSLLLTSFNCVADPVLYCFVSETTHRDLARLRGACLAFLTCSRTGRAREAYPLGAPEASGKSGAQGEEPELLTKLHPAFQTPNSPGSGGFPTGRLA

Compound	IC50 [nM]
COCc1nn2c(C(=O)NC3COc4ccc(Cl)cc4C3)ccnc2c1C(N)=O (centres unmarked) [Compound 114, N7-(6-chlorochroman-3-yl)-2-(methoxymethyl)pyrazolo[1,5-a]pyrimidine-3,7-dicarboxamide]	< 50
COCc1nc2c(C(=O)NC3Cc4ccccc4C3)ccnn2c1C(N)=O [Compound 56, N8-indan-2-yl-2-(methoxymethyl)imidazo[1,2-b]pyridazine-3,8-dicarboxamide]	< 50
Cc1cc(C(=O)NC2CCS(=O)(=O)c3ccccc32)n2nc(C3CC3)c(C(N)=O)c2n1 (centres unmarked) [Compound 242, 2-cyclopropyl-N7-(1,1-dioxo-3,4-dihydro-2H-thiochromen-4-yl)-5-methyl-pyrazolo[1,5-a]pyrimidine-3,7-dicarboxamide]	< 50
NC(=O)c1c(C2CC2)nn2c(C(=O)NC3Cc4ccccc43)ccnc12 (centres unmarked) [Compound 138, N7-(7-bicyclo[4.2.0]octa-1,3,5-trienyl)-2-cyclopropyl-pyrazolo[1,5-a]pyrimidine-3,7-dicarboxamide]	< 50
NC(=O)c1c(C2CC2)nn2c(C(=O)NCc3ccc(F)cc3)ccnc12 [Compound 140, 2-cyclopropyl-N7-[(4-fluorophenyl)methyl]pyrazolo[1,5-a]pyrimidine-3,7-dicarboxamide]	< 50
COCc1nn2c(C(=O)N[C@H]3COc4ccc(F)cc43)ccnc2c1C(N)=O [Compound 120, N7-[(3R)-5-fluoro-2,3-dihydrobenzofuran-3-yl]-2-(methoxymethyl)pyrazolo[1,5-a]pyrimidine-3,7-dicarboxamide]	< 50
COCc1nn2c(C(=O)NCC3CCC(F)(F)CC3)ccnc2c1C(N)=O [Compound 133, N7-[(4,4-difluorocyclohexyl)methyl]-2-(methoxymethyl)pyrazolo[1,5-a]pyrimidine-3,7-dicarboxamide]	< 50
O=C(NC1Cc2ccccc2C1)c1cccc2c(-c3ncco3)cnn12 [Compound 31, N-indan-2-yl-3-oxazol-2-yl-pyrazolo[1,5-a]pyridine-7-carboxamide]	5000 to 50000
COCc1nn2c(C(=O)NC3CCc4ccc(F)cc4C3)ccnc2c1C(N)=O (centres unmarked) [Compound 82, N7-(7-fluorotetralin-2-yl)-2-(methoxymethyl)pyrazolo[1,5-a]pyrimidine-3,7-dicarboxamide]	< 50
Cc1nn2c(C(=O)NC3Cc4ccc(Cc5ccccc5)cc4C3)ccnc2c1C(N)=O (centres unmarked) [Compound 51, N7-(5-benzylindan-2-yl)-2-methyl-pyrazolo[1,5-a]pyrimidine-3,7-dicarboxamide]	5000 to 50000
COCc1nn2c(C(=O)NC3COc4ccccc43)ccnc2c1C(N)=O (centres unmarked) [Compound 75, N7-(2,3-dihydrobenzofuran-3-yl)-2-(methoxymethyl)pyrazolo[1,5-a]pyrimidine-3,7-dicarboxamide]	< 50
COCc1nc2c(C(=O)N[C@H]3C[C@@H](OC(F)(F)F)C3)ccnn2c1C(N)=O [Compound 55, 2-(methoxymethyl)-N8-[cis-3-(trifluoromethoxy)cyclobutyl]imidazo[1,2-b]pyridazine-3,8-dicarboxamide]	50 to 500
CNc1nn2c(C(=O)NC3CC(F)(F)C3)ccnc2c1C(N)=O [Compound 34, N7-(3,3-difluorocyclobutyl)-2-(methylamino)pyrazolo[1,5-a]pyrimidine-3,7-dicarboxamide]	< 50
COCc1nn2c(C(=O)NC3CCCCC3)ccnc2c1C(N)=O [Compound 76, N7-cyclohexyl-2-(methoxymethyl)pyrazolo[1,5-a]pyrimidine-3,7-dicarboxamide]	50 to 500
COCc1nn2c(C(=O)N[C@H]3CCc4ccccc43)ccnc2c1C(N)=O [Compound 183, 2-(methoxymethyl)-N7-[(1S)-indan-1-yl]pyrazolo[1,5-a]pyrimidine-3,7-dicarboxamide]	< 50
NC(=O)c1c(C2CC2)nc2c(C(=O)NC3CCC(F)(F)CC3)ccnn12 [Compound 150, 2-cyclopropyl-N8-(4,4-difluorocyclohexyl)imidazo[1,2-b]pyridazine-3,8-dicarboxamide]	< 50
NC(=O)c1c(C2CC2)nc2c(C(=O)N[C@H]3C[C@@H](OC(F)(F)F)C3)ccnn12 [Compound 151, 2-cyclopropyl-N8-[cis-3-(trifluoromethoxy)cyclobutyl]imidazo[1,2-b]pyridazine-3,8-dicarboxamide]	< 50
COCc1nc2c(C(=O)NC3CCS(=O)(=O)c4ccccc43)ccnn2c1C(N)=O (centres unmarked) [Compound 221, N8-(1,1-dioxo-3,4-dihydro-2H-thiochromen-4-yl)-2-(methoxymethyl)imidazo[1,2-b]pyridazine-3,8-dicarboxamide]	50 to 500
Cc1ccc(-c2ccncc2)cc1NC(=O)c1ccnc2c(C(N)=O)cnn12 [Compound 97, N7-[2-methyl-5-(pyridin-4-yl)phenyl]pyrazolo[1,5-a]pyrimidine-3,7-dicarboxamide]	500 to 5000
COCc1nn2c(C(=S)NC3Cc4ccccc4C3)ccnc2c1C(N)=O [Compound 148, 7-(indan-2-ylcarbamothioyl)-2-(methoxymethyl)pyrazolo[1,5-a]pyrimidine-3-carboxamide]	< 50
Cc1nn2c(C(=O)NC3Cc4ccccc4C3)ccnc2c1C(N)=O [Compound 46, N7-indan-2-yl-2-methyl-pyrazolo[1,5-a]pyrimidine-3,7-dicarboxamide]	< 50
Cc1nn2c(C(=O)N[C@H]3C[C@@H](C#N)C3)ccnc2c1C(N)=O [Compound 50, N7-(cis-3-cyanocyclobutyl)-2-methyl-pyrazolo[1,5-a]pyrimidine-3,7-dicarboxamide]	500 to 5000
Cc1nn2c(C(=O)NC3Cc4cccnc4C3)ccnc2c1C(N)=O (centres unmarked) [Compound 49, N7-(6,7-dihydro-5H-cyclopenta[b]pyridin-6-yl)-2-methyl-pyrazolo[1,5-a]pyrimidine-3,7-dicarboxamide]	500 to 5000
COCc1nc2c(C(=O)N[C@H]3CCOc4cc(F)ccc43)ccnn2c1C(N)=O [Compound 108, 2-(methoxymethyl)-N8-[(4S)-7-fluorochroman-4-yl]imidazo[1,2-b]pyridazine-3,8-dicarboxamide]	< 50
COCc1nn2c(C(=O)NCc3ccc(C)cc3)ccnc2c1C(N)=O [Compound 72, 2-(methoxymethyl)-N7-(p-tolylmethyl)pyrazolo[1,5-a]pyrimidine-3,7-dicarboxamide]	< 50
NC(=O)c1cnn2c(C(=O)N[C@H]3C[C@@H](OC(F)(F)F)C3)ccnc12 [Compound 18, N7-[cis-3-(trifluoromethoxy)cyclobutyl]pyrazolo[1,5-a]pyrimidine-3,7-dicarboxamide]	500 to 5000
CCCc1nn2c(C(=O)N[C@H]3C[C@@H](OC(F)(F)F)C3)ccnc2c1C(N)=O [Compound 137, 2-propyl-N7-[cis-3-(trifluoromethoxy)cyclobutyl]pyrazolo[1,5-a]pyrimidine-3,7-dicarboxamide]	< 50
Cc1nn2c(C(=O)NC3Cc4ccncc4C3)ccnc2c1C(N)=O (centres unmarked) [Compound 52, N7-(6,7-dihydro-5H-cyclopenta[c]pyridin-6-yl)-2-methyl-pyrazolo[1,5-a]pyrimidine-3,7-dicarboxamide]	5000 to 50000
NC(=O)c1c(C2CC2)nn2c(C(=O)NC3Cc4ccccc4C3)ccnc12 [Compound 130, 2-cyclopropyl-N7-indan-2-yl-pyrazolo[1,5-a]pyrimidine-3,7-dicarboxamide]	< 50
